The values that follow come from US5137892A, “Quinoline, naphthyridine and pyridobenzoxazine derivatives” (Abbott Laboratories, priority 1990, dated 1992).

Usually ED50 stands for the midpoint of the dose-response relation.

Values after ≈ are worked out from the molar mass of the structure shown. Where two headings read alike, the source gives them in different places. A value given as a limit tells only on which side of the number the result lay.

For test [1], the system named is Staphylococcus aureus NCTC 10649. Nature of the test: In Vivo Antibacterial Activity, protection of CF-1 female mice from bacterial challenge. On the set-up: species or system CF-1 female mice infected with Staphylococcus aureus. The conditions noted are these: 100 times the LD50 i.p., dosed at 1 and 5 hr after infection, mortality on sixth day. The protocol: The in vivo antibacterial activity of one of the compounds of the present invention was determined by studying the protection of CF-1 female mice from bacterial challenge. The test compound was 7-(2-dimethylaminomethyl-1,4-dioxa-7-azaspiro[4.4]non-7-yl)-6-fluoro-1-(2,4-difluorophenyl)-1,8-naphthyridine-3-carboxylic acid (prepared in Example 445). Aqueous solutions of the compound were made by dissolving it in dilute NaOH and diluting with distilled water to the desired volume.
The median lethal dose of the test organism was then determined as follows: After 18 hours incubation, a culture of Staphylococcus aureus NCTC 10649 was serially diluted by using 10-fold dilutions in 5% (w/v) hog gastric mucin. 0.5 mL samples, of dilution from 10^-1 to 10^-8, were injected intraperitoneally into mice. The LD50 for the test organism was calculated from the cumulative mortalities on the sixth day by the using the Reed and Muench procedure (Reed, L. J., and H. Muench, Amer. J. Hygiene, 27, 493 (1938)).
The 18 hour culture of the test organism was then diluted in 5% (w/v) hog gastric mucin to obtain 100 times the LD50, and 0.5 mL was injected intraperitoneally into mice. The mice were treated subcutaneously or orally with a specific amount of the test compound divided equally to be administered at 1 and 5 hr after infection. […]

In test [2] the test system is Streptococcus bovis A5169. Put plainly: In Vitro Antibacterial Activity, agar dilution MIC. The test is classed as cell-based. The conditions noted are these: S. bovis A5169; BHI agar dilution, 20-24 hours; unit assumed. The method, then: (§1) The activity of the compounds of the present invention was tested against a wide variety of bacteria using standard assay procedures. Minimum inhibitory concentrations (MICs) were determined by the agar dilution method, described below, using Brain Heart Infusion agar.
(§2) Twelve petri dishes were prepared, each containing successive aqueous 2-fold dilutions of the test compounds mixed with 10 mL of sterilized Brain Heart Infusion (BHI) agar. Each plate was inoculated with 100-fold (or 10-fold, for slow-growing strains such as Micrococcus and Streptococcus) dilutions of up to 32 different microorganisms using a Steers replicator block calibrated to deliver approximately 10^4 colony forming units (CFUs). The inoculated plates were incubated at about 35°-37° C. for approximately 20-24 hours. In addition, a control plate, using BHI agar containing no test compound, was prepared and incubated at the beginning and at the end of each test. Ciprofloxacin was used as the reference antibiotic.
(§3) The MIC was defined as the lowest concentration of test compound yielding no growth (a slight haze or sparsely isolated colonies at the inoculum spot as compared to the growth control contaning no test compound.

In test [3] the test system is Streptococcus pyogenes 930 CONST. Nature of the test: In Vitro Antibacterial Activity, agar dilution MIC. It counts as cell-based. The conditions noted are these: S. pyogenes 930 CONST; BHI agar dilution, 20-24 hours; unit assumed. The method, then:
as §1, §2, §3
In general terms: In agar dilution, organisms are placed on agar that contains the substance at set levels.

For test [4], the system named is Pseudomonas aeruginosa A5007. Nature of the test: In Vitro Antibacterial Activity, agar dilution MIC. The test is classed as cell-based. The conditions noted are these: P. aeruginosa A5007; BHI agar dilution, 20-24 hours; unit assumed. The protocol:
as §1, §2, §3

Test [5] has as its system Staphylococcus aureus ATCC 6538P. Nature of the test: In Vitro Antibacterial Activity, agar dilution MIC. The test is classed as cell-based. Conditions: S. aureus ATCC 6538P; BHI agar dilution, 20-24 hours; unit assumed. The method, then: as §1, §2, §3
Test [6] deals with Providencia stuartii CMX 640. Nature of the test: In Vitro Antibacterial Activity, agar dilution MIC. Conditions: P. stuartii CMX 640; BHI agar dilution, 20-24 hours; unit assumed. The test is classed as cell-based. The protocol: as §1, §2, §3
In test [7] the test system is Klebsiella pneumoniae ATCC 8045. Nature of the test: In Vitro Antibacterial Activity, agar dilution MIC. It counts as cell-based. Conditions: K. pneumoniae ATCC 8045; BHI agar dilution, 20-24 hours; unit assumed. The method, then:
as §1, §2, §3

Test [8] relates to Enterobacter aerogenes ATCC 13048. Put plainly: In Vitro Antibacterial Activity, agar dilution MIC. The test is classed as cell-based. Conditions: E. aerogenes ATCC 13048; BHI agar dilution, 20-24 hours; unit assumed. The protocol: as §1, §2, §3
The test system of the next test is Staphylococcus aureus 45. Nature of the test: In Vitro Antibacterial Activity, agar dilution MIC. Conditions: S. aureus 45; BHI agar dilution, 20-24 hours; unit assumed. The test is classed as cell-based. The method, then: as §1, §2, §3
Test [9] has as its system Micrococcus luteus ATCC 4698. Nature of the test: In Vitro Antibacterial Activity, agar dilution MIC. The test is classed as cell-based. The conditions noted are these: M. luteus ATCC 4698; BHI agar dilution, 20-24 hours; unit assumed. The method, then:
as §1, §2, §3

The test system of test [10] is Staphylococcus aureus A5177. Put plainly: In Vitro Antibacterial Activity, agar dilution MIC. The test is classed as cell-based. The conditions noted are these: S. aureus A5177; BHI agar dilution, 20-24 hours; unit assumed. The protocol: as §1, §2, §3
Another test concerns Escherichia coli DC-2. Nature of the test: In Vitro Antibacterial Activity, agar dilution MIC. The test is classed as cell-based. The conditions noted are these: E. coli DC-2; BHI agar dilution, 20-24 hours; unit assumed. The method, then:
as §1, §2, §3

Test [11] deals with Streptococcus pyogenes EES61. Put plainly: In Vitro Antibacterial Activity, agar dilution MIC. The test is classed as cell-based. The conditions noted are these: S. pyogenes EES61; BHI agar dilution, 20-24 hours; unit assumed. The protocol:
as §1, §2, §3

Another test deals with Acinetobacter SP CMX 699. Put plainly: In Vitro Antibacterial Activity, agar dilution MIC. The test is classed as cell-based. Conditions: BHI agar dilution, 20-24 hours, unit assumed. The method, then:
as §1, §2, §3

Test [12] has as its system Staphylococcus aureus NCTC 10649. Put plainly: In Vitro Antibacterial Activity, agar dilution MIC. The test is classed as cell-based. The conditions noted are these: S. aureus NCTC 10649; BHI agar dilution, 20-24 hours; unit assumed. The method, then:
as §1, §2, §3

For a further test, the system named is Escherichia coli JUHL. Put plainly: In Vitro Antibacterial Activity, agar dilution MIC. The test is classed as cell-based. The conditions noted are these: E. coli JUHL; BHI agar dilution, 20-24 hours; unit assumed. The method, then: as §1, §2, §3
For test [13], the system named is Enterococcus faecium ATCC 8043. Nature of the test: In Vitro Antibacterial Activity, agar dilution MIC. The test is classed as cell-based. Conditions: E. faecium ATCC 8043; BHI agar dilution, 20-24 hours; unit assumed. The method, then: as §1, §2, §3
Test [14] relates to Streptococcus pyogenes 2548 INDUC. Put plainly: In Vitro Antibacterial Activity, agar dilution MIC. It counts as cell-based. Conditions: S. pyogenes 2548 INDUC; BHI agar dilution, 20-24 hours; unit assumed. The protocol: as §1, §2, §3
The subject of a further test is Escherichia coli KNK 437. Put plainly: In Vitro Antibacterial Activity, agar dilution MIC. The test is classed as cell-based. Conditions: E. coli KNK 437; BHI agar dilution, 20-24 hours; unit assumed. The protocol:
as §1, §2, §3

The subject of test [15] is Staphylococcus aureus CMX 553. Put plainly: In Vitro Antibacterial Activity, agar dilution MIC. The test is classed as cell-based. Conditions: S. aureus CMX 553; BHI agar dilution, 20-24 hours; unit assumed. The method, then: as §1, §2, §3
Test [16] deals with Staphylococcus aureus 45 RAR2. Put plainly: In Vitro Antibacterial Activity, agar dilution MIC. The test is classed as cell-based. Conditions: S. aureus 45 RAR2; BHI agar dilution, 20-24 hours; unit assumed. The method, then: as §1, §2, §3

As to `CN(C)CC1COC2(CCN(c3nc4c(cc3F)c(=O)c(C(=O)O)cn4-c3ccc(F)cc3F)C2)O1` (stereo not shown) [Example 445], the 50% effective dose (ED50) in [1] (NCTC10649, 144 h, oral, read-out: oral ED50) came to 6 mg/kg; in [1] (NCTC10649, sc, 144 h, subcutaneous, read-out: subcutaneous ED50), 5 mg/kg. Moreover, the MIC values in test [2] was 1.56 µg/mL (≈ 3.09 µM); in [3], 0.78 µg/mL (≈ 1.55 µM); in test [4], 12.5 µg/mL (≈ 24.8 µM); in test [5], 0.2 µg/mL (≈ 0.396 µM); in test [6] it was greater than 100 µg/mL; in test [7] it was 1.56 µg/mL (≈ 3.09 µM). The MIC values in [8] came out at 3.1 µg/mL (≈ 6.15 µM); against Staphylococcus aureus 45, 0.39 µg/mL (≈ 0.773 µM); in test [9] it was 12.5 µg/mL (≈ 24.8 µM); in test [10] it was 0.39 µg/mL (≈ 0.773 µM); in the test with Escherichia coli DC-2, 12.5 µg/mL (≈ 24.8 µM); in [11], 0.78 µg/mL (≈ 1.55 µM). Further, the MIC values is 6.2 µg/mL (≈ 12.3 µM) against Acinetobacter SP CMX 699; 0.2 µg/mL (≈ 0.396 µM) in test [12]; 1.56 µg/mL (≈ 3.09 µM) in the test with Escherichia coli JUHL; 1.56 µg/mL (≈ 3.09 µM) in test [13]; 0.2 µg/mL (≈ 0.396 µM) in [14]; 12.5 µg/mL (≈ 24.8 µM) in the test with Escherichia coli KNK 437. Besides, the MIC values in [15] amounted to 0.39 µg/mL (≈ 0.773 µM); in test [16] it was 0.78 µg/mL (≈ 1.55 µM).
